Square brackets hold non-standard residues; d marks the D form. Peptide text beside a SMILES is read from it. Nle = CCCC[C@H](N)C(=O)O
System: rat pituitary cells in tissue culture
Experiment: Bioassay of hGRF analogs: GH release from cultured pituitary cells
Assay type: cell-based
Conditions: for Dose Needed to Release 2.01 μg/ml of GH (ED50 value for hGRF) / Maximum GH Released / Relative Maximum Activity (% of hGRF): from curves generated by ALLFIT; for GH release at dosages comparable to native hGRF: referring to Table 1; for Potency: (ED50 of hGRF)/(Dose required to give same response as ED50 of hGRF): relative to hGRF(1-44)-NH2 = 100
From the text: The assay for biological activity, which is based on the ability to stimulate release of growth hormone in rat pituitary cells in tissue culture, has been described in detail (Culler, M. D.; Kenjo, T.: Obara, N.; Arimuar, A., Stimulation of cAMP. Accumulation by Human Pancreatic GH-Releasing Factor-(1-44). Am. J. Physiol. 1984, 247 (Endocrinol.Metab.10), E609-E615.
ALLFIT, the 4-parameter logistic curve fitting program available from the Biomedical Computer Technology Information Center, Vanderbilt Medical Center, Nashville TN, was used to determine ED50 and maximal stimulated values from the data. In several instances, the amount of GH released reached a maximum value and decreased with further increasing doses of the hGRF analogs. To simplify the data analysis, these values were not used in the calculations. The calculated maximal responses, the doses of the analog required to release the amount of GH released at the ED50 of the standard (hGRF) and the potencies of the analogs relative to hGRF, are given in Table 2. Generally all novel analogs were fully active and were able to stimulate the release of growth hormone with maximal values of GH release being within 80% of the value for natural hGRF.

Structure (SMILES)	GH Released (mean ± (S.E.)) (Dose 1 × 10^-6 M)	GH Released (mean ± (S.E.)) (Dose 1 × 10^-7 M)	GH Released (mean ± (S.E.)) (Dose 1 × 10^-8 M)	GH Released (mean ± (S.E.)) (Dose 1 × 10^-9 M)	GH Released (mean ± (S.E.)) (Dose 1 × 10^-10 M)	GH Released (mean ± (S.E.)) (Dose 1 × 10^-11 M)	Dose Needed to Release 2.01 μg/ml of GH (ED50 value for hGRF) [nM]	Maximum GH Released [µg/mL]	Relative Maximum Activity (% of hGRF) [%]	GH release at dosages comparable to native hGRF	Potency: (ED50 of hGRF)/(Dose required to give same response as ED50 of hGRF) [%]	Potency: (ED50 of hGRF)/(Dose required to give same response as ED50 of hGRF) (listed as [Asn^3,Asp^8,Asn^25,Nle^27 ]-hGRF(1-31)--NH2) [%]	Potency: (ED50 of hGRF)/(Dose required to give same response as ED50 of hGRF) (listed as [Asn^3,Asp^8,Nle^27 ]-hGRF(1-31)--NH2) [%]	times more potent than hGRF(1-44)--NH2 (on a molar basis) [times]
CCCC[C@H](NC(=O)[C@@H](NC(=O)[C@H](CC(N)=O)NC(=O)[C@H](CCC(N)=O)NC(=O)[C@H](CC(C)C)NC(=O)[C@H](CC(C)C)NC(=O)[C@H](CCCCN)NC(=O)[C@H](CCCNC(=N)N)NC(=O)[C@H](C)NC(=O)[C@H](CO)NC(=O)[C@H](CC(C)C)NC(=O)[C@H](CCC(N)=O)NC(=O)CNC(=O)[C@H](CC(C)C)NC(=O)[C@@H](NC(=O)[C@H](CCCCN)NC(=O)[C@H](CCCNC(=N)N)NC(=O)[C@H](Cc1ccc(O)cc1)NC(=O)[C@H](CO)NC(=O)[C@H](CC(N)=O)NC(=O)[C@@H](NC(=O)[C@H](Cc1ccccc1)NC(=O)[C@@H](NC(=O)[C@H](C)NC(=O)[C@H](CC(N)=O)NC(=O)[C@H](C)NC(=O)[C@@H](N)Cc1ccc(O)cc1)[C@@H](C)CC)[C@@H](C)O)C(C)C)[C@@H](C)CC)C(=O)N[C@@H](CO)C(=O)N[C@@H](CCCNC(=N)N)C(=O)N[C@@H](CCC(N)=O)C(=O)N[C@@H](CCC(N)=O)C(N)=O [[Asn^3,Asn^25,Nle^27], [Asn^3,Asn^25,Nle^27]-hGRF(1-31)--NH2] (H-YANAIFTNSYRKVLGQLSARKLLQNI[Nle]SRQQ-NH2)	2.96 (0.11) μg/mL	3.30 (0.08) μg/mL	3.21 (0.13) μg/mL	1.58 (0.07) μg/mL	0.81 (0.06) μg/mL	0.65 (0.03) μg/mL	1.54	3.33	101	induced GH release in dosages comparable to those for native hGRF	21			
CCCC[C@H](NC(=O)[C@@H](NC(=O)[C@H](CC(N)=O)NC(=O)[C@H](CCC(N)=O)NC(=O)[C@H](CC(C)C)NC(=O)[C@H](CC(C)C)NC(=O)[C@H](CCCCN)NC(=O)[C@H](CCCNC(=N)N)NC(=O)[C@H](C)NC(=O)[C@H](CO)NC(=O)[C@H](CC(C)C)NC(=O)[C@H](CCC(N)=O)NC(=O)CNC(=O)[C@H](CC(C)C)NC(=O)[C@@H](NC(=O)[C@H](CCCCN)NC(=O)[C@H](CCCNC(=N)N)NC(=O)[C@H](Cc1ccc(O)cc1)NC(=O)[C@H](CO)NC(=O)[C@H](CC(=O)O)NC(=O)[C@@H](NC(=O)[C@H](Cc1ccccc1)NC(=O)[C@@H](NC(=O)[C@H](C)NC(=O)[C@H](CC(N)=O)NC(=O)[C@H](C)NC(=O)[C@@H](N)Cc1ccc(O)cc1)[C@@H](C)CC)[C@@H](C)O)C(C)C)[C@@H](C)CC)C(=O)N[C@@H](CO)C(=O)N[C@@H](CCCNC(=N)N)C(=O)N[C@@H](CCC(N)=O)C(=O)N[C@@H](CCC(N)=O)C(N)=O [[Asn^3,Asp^8,Asn^25,Nle^27], [Asn^3,Asp^8,Asn^25,Nle^27]-hGRF(1-31)--NH2] (H-YANAIFTDSYRKVLGQLSARKLLQNI[Nle]SRQQ-NH2)	3.12 (0.12) μg/mL	2.94 (0.11) μg/mL	1.88 (0.07) μg/mL	0.75 (0.01) μg/mL	0.61 (0.05) μg/mL	0.60 (0.02) μg/mL	12.05	3.11	94	did not induce GH release at dosages comparable to native hGRF	3	5		
CCCC[C@H](NC(=O)[C@@H](NC(=O)[C@H](CC(=O)O)NC(=O)[C@H](CCC(N)=O)NC(=O)[C@H](CC(C)C)NC(=O)[C@H](CC(C)C)NC(=O)[C@H](CCCCN)NC(=O)[C@H](CCCNC(=N)N)NC(=O)[C@H](C)NC(=O)[C@H](CO)NC(=O)[C@H](CC(C)C)NC(=O)[C@H](CCC(N)=O)NC(=O)CNC(=O)[C@H](CC(C)C)NC(=O)[C@@H](NC(=O)[C@H](CCCCN)NC(=O)[C@H](CCCNC(=N)N)NC(=O)[C@H](Cc1ccc(O)cc1)NC(=O)[C@H](CO)NC(=O)[C@H](CC(=O)O)NC(=O)[C@@H](NC(=O)[C@H](Cc1ccccc1)NC(=O)[C@@H](NC(=O)[C@H](C)NC(=O)[C@H](CC(N)=O)NC(=O)[C@H](C)NC(=O)[C@@H](N)Cc1ccc(O)cc1)[C@@H](C)CC)[C@@H](C)O)C(C)C)[C@@H](C)CC)C(=O)N[C@@H](CO)C(=O)N[C@@H](CCCNC(=N)N)C(=O)N[C@@H](CCC(N)=O)C(=O)N[C@@H](CCC(N)=O)C(N)=O [[Asn^3,Asp^8,Nle^27], [Asn^3,Asp^8,Nle^27]-hGRF(1-31)--NH2] (H-YANAIFTDSYRKVLGQLSARKLLQDI[Nle]SRQQ-NH2)	2.74 (0.19) μg/mL	3.30 (0.27) μg/mL	2.27 (0.07) μg/mL	1.04 (0.05) μg/mL	0.58 (0.04) μg/mL	0.65 (0.04) μg/mL	6.74	3.53	107	did not induce GH release at dosages comparable to native hGRF	5		3	
CCCC[C@H](NC(=O)[C@@H](NC(=O)[C@H](CC(=O)O)NC(=O)[C@H](CCC(N)=O)NC(=O)[C@H](CC(C)C)NC(=O)[C@H](CC(C)C)NC(=O)[C@H](CCCCN)NC(=O)[C@H](CCCNC(=N)N)NC(=O)[C@H](C)NC(=O)[C@H](CO)NC(=O)[C@H](CC(C)C)NC(=O)[C@H](CCC(N)=O)NC(=O)CNC(=O)[C@H](CC(C)C)NC(=O)[C@@H](NC(=O)[C@H](CCCCN)NC(=O)[C@H](CCCNC(=N)N)NC(=O)[C@H](Cc1ccc(O)cc1)NC(=O)[C@H](CO)NC(=O)[C@H](CC(N)=O)NC(=O)[C@@H](NC(=O)[C@H](Cc1ccccc1)NC(=O)[C@@H](NC(=O)[C@H](C)NC(=O)[C@H](CC(N)=O)NC(=O)[C@H](C)NC(=O)[C@@H](N)Cc1ccc(O)cc1)[C@@H](C)CC)[C@@H](C)O)C(C)C)[C@@H](C)CC)C(=O)N[C@@H](CO)C(=O)N[C@@H](CCCNC(=N)N)C(=O)N[C@@H](CCC(N)=O)C(=O)N[C@@H](CCC(N)=O)C(N)=O [[Asn^3,Nle^27], [Asn^3, Nle^27]-hGRF(1-31)--NH2] (H-YANAIFTNSYRKVLGQLSARKLLQDI[Nle]SRQQ-NH2)	3.22 (0.16) μg/mL	3.05 (0.09) μg/mL	2.90 (0.12) μg/mL	2.40 (0.06) μg/mL	0.97 (0.01) μg/mL	0.67 (0.08) μg/mL	0.58	3.09	93	induced GH release in dosages comparable to those for native hGRF	55			
CCCC[C@H](NC(=O)[C@@H](NC(=O)[C@H](CC(N)=O)NC(=O)[C@H](CCC(N)=O)NC(=O)[C@H](CC(C)C)NC(=O)[C@H](CC(C)C)NC(=O)[C@H](CCCCN)NC(=O)[C@H](CCCNC(=N)N)NC(=O)[C@H](C)NC(=O)[C@H](CO)NC(=O)[C@H](CC(C)C)NC(=O)[C@H](CCC(N)=O)NC(=O)CNC(=O)[C@H](CC(C)C)NC(=O)[C@@H](NC(=O)[C@H](CCCCN)NC(=O)[C@H](CCCNC(=N)N)NC(=O)[C@H](Cc1ccc(O)cc1)NC(=O)[C@H](CO)NC(=O)[C@H](CC(N)=O)NC(=O)[C@@H](NC(=O)[C@H](Cc1ccccc1)NC(=O)[C@@H](NC(=O)[C@H](C)NC(=O)[C@H](CC(=O)O)NC(=O)[C@H](C)NC(=O)[C@@H](N)Cc1ccc(O)cc1)[C@@H](C)CC)[C@@H](C)O)C(C)C)[C@@H](C)CC)C(=O)N[C@@H](CO)C(=O)N[C@@H](CCCNC(=N)N)C(=O)N[C@@H](CCC(N)=O)C(=O)N[C@@H](CCC(N)=O)C(N)=O [[Asn^25,Nle^27], [Asn^25,Nle^27]-hGRF(1-31)--NH2] (H-YADAIFTNSYRKVLGQLSARKLLQNI[Nle]SRQQ-NH2)	3.22 (0.24) μg/mL	3.22 (0.09) μg/mL	3.10 (0.12) μg/mL	3.12 (0.15) μg/mL	1.84 (0.06) μg/mL	0.72 (0.05) μg/mL	0.12	3.18	96	induced GH release in dosages comparable to those for native hGRF	267			2.7
